The IC50 is the midpoint of a concentration-inhibition curve. Broadly, the melting point is the temperature of the solid-liquid transition.

Structures are written as SMILES.

The source of these data is US6770778B2, “N-(4-substituted phenyl)-anthranilic acid hydroxamate esters” (Pfizer Inc, priority 2002, dated 2004).

For one data set, the system named is MEK. The data set is described as follows: Cellular assay for measuring MEK inhibition (inhibition of ERK phosphorylation in C26 cells). Format: cell-based. The conditions noted are these: murine colon 26 (C26) carcinoma cells, 1 hour at 37° C., Western blot of dually phosphorylated ERK1 and ERK2. The method, then:
The evaluation of the compounds as MEK inhibitors is performed in an assay that measures their ability to inhibit phosphorylation of MAP kinase (ERK) in murine colon 26 (C26) carcinoma cells. Since ERK1 and ERK2 represent the only known substrates for MEK, measurement of inhibition of ERK phosphorylation in cells provides direct readout of cellular MEK inhibition by the compounds of the invention. Briefly, the assay involves treating exponentially growing C26 cells with varying concentrations of the test compound (or vehicle control) for 1 hour at 37° C. Cells are then rinsed free of compound/vehicle and lysed in a solution containing 70 mM NaCl, 50 mM glycerol phosphate, 10 mM HEPES, pH 7.4, 1% Triton X-100, 1 mM Na3VO4, 100 μM PMSF, 10 μM leupeptin, and 10 μM pepstatin. Supernatants are then subjected to gel electrophoresis and Western blotting using a primary antibody recognizing dually phosphorylated ERK1 and ERK2. To evaluate total MAPK levels, blots were subsequently ‘stripped’ and re-probed with a 1:1 mixture of polyclonal antibodies recognizing unphosphorylated ERK1 and ERK2.
The inhibition data generated by the above protocol is disclosed in Table 1. If several concentrations of inhibitor were tested, IC50 values (the concentration which gives 50% inhibition) were determined graphically from the dose response curve for % inhibition. Otherwise, percent inhibitions at measured concentrations are reported.

As to `COCC#Cc1ccc(Nc2c(C(=O)NOCCO)ccc(F)c2F)c(F)c1` [Example 5, 3,4-Difluoro-2-[[2-fluoro-4-(3-methoxy-1-propynyl)phenyl]amino]-N-(2-hydroxyethoxy)benzamide], the melting point is 121 to 123 °C. The molecule further returned a half-inhibitory concentration (IC50) in the data set on MEK above 1 µM.

In turn, `COC(=O)c1ccc(Nc2c(C(=O)NOCCO)ccc(F)c2F)c(F)c1` [Example 3, Methyl 4-(2,3-difluoro-6-{[(2-hydroxyethoxy)amino]carbonyl}anilino)-3-fluorobenzoate] registered a melting point of 162 to 165 °C. Moreover, the IC50 in the data set on MEK came to 0.027 µM.

Molecule `CNC(=O)c1ccc(Nc2c(C(=O)NOCCO)ccc(F)c2F)c(F)c1` [Example 7, 2-{2-fluoro-4-[(methylamino)carbonyl]anilino}-3,4-difluoro-N-(2-hydroxyethoxy)benzamide] displayed a melting point of 197 to 200 °C. The IC50 in the data set with MEK was above 10 µM.

Molecule `CC(=O)c1ccc(Nc2c(C(=O)NOCCO)ccc(F)c2F)c(Cl)c1` [Example 6, 2-(4-Acetyl-2-chloro-phenylamino)-3,4-difluoro-N-(2-hydroxy-ethoxy)-benzamide] came in with a melting point of 161.5 to 162.5 °C.

As to `COC(=O)c1ccc(Nc2c(C(=O)NOCCO)ccc(F)c2F)cc1` [Example 1, Methyl 4-[[2.3-difluoro-6-[[(2-hydroxyethoxy)amino]carbonyl]phenyl]-amino]benzoate], the melting point is 158 to 160 °C. This molecule yielded a 50% inhibitory concentration (IC50) in the data set with MEK above 1 µM.

As for `O=C(O)c1ccc(Nc2c(C(=O)NOCCO)ccc(F)c2F)cc1` [Example 2, 4-[[2,3-Difluoro-6-[[(2-hydroxyethoxy)amino]carbonyl]phenyl]amino]-benzoic acid], the melting point fell in the range of 180 to 183 °C. Half-maximal inhibition with MEK (IC50) required 0.073 µM.

In turn, `O=C(O)c1ccc(Nc2c(C(=O)NOCCO)ccc(F)c2F)c(F)c1` [Example 4, 4-(2,3-Difluoro-6-{[(2-hydroxyethoxy)amino]carbonyl}anilino)-3-fluorobenzoic acid] returned a melting point of 196 to 200 °C. Besides, the concentration for half-maximal inhibition (IC50) in the data set with MEK was above 1 µM.
